# Results published in the supplement of paper PMC10307832.
# Key:
# Experiment in all cases: relative viability (nuclei count vs DMSO), 5 days (fraction); higher = more cells survive
# NCI-H647 = test system: NCI-H647
# How it was run: (§1)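 For relative viability, nuclei counts in treated wells were divided by those in vehicle wells. Lung cancer cell lines had been pin-tool dosed in 1536-well plates the day after seeding and cultured for 5 days, then fixed and stained in one step (final 0.05% Triton X-100, 1% formaldehyde, 1 ug/ml Hoechst) and imaged at 4×. Doses were one drug alone or a fixed anchor-drug dose plus five library-drug doses (not always all listed) in √10 steps, and values are duplicate-plate medians.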
# NCI-H460 = test system: NCI-H460
# How it was run: as §1
# HCC-78 = test system: HCC-78
# How it was run: as §1
# A-427 = test system: A-427
# How it was run: as §1
# NCI-H661 = test system: NCI-H661
# How it was run: as §1
# HCC-15 = test system: HCC-15
# How it was run: as §1
# HOP-62 = test system: HOP-62
# How it was run: as §1
# PC-14 = test system: PC-14
# How it was run: as §1
# EMC-BAC-2 = test system: EMC-BAC-2
# How it was run: as §1
# NCI-H2405 = test system: NCI-H2405
# How it was run: as §1
# COR-L23 = test system: COR-L23
# How it was run: as §1
# NCI-H522 = test system: NCI-H522
# How it was run: as §1
# EKVX = test system: EKVX
# How it was run: as §1
# 201T = test system: 201T
# How it was run: as §1
# SK-MES-1 = test system: SK-MES-1
# How it was run: as §1
# NCI-H1915 = test system: NCI-H1915
# How it was run: as §1
# LK-2 = test system: LK-2
# How it was run: as §1
# BEN = test system: BEN
# How it was run: as §1
# NCI-H1993 = test system: NCI-H1993
# How it was run: as §1
# HCC-366 = test system: HCC-366
# How it was run: as §1
# COR-L 105 = test system: COR-L 105
# How it was run: as §1
# NCI-H1734 = test system: NCI-H1734
# How it was run: as §1
smiles,measurement,setting,value
CN1CCN(CCOc2cc(OC3CCOCC3)c3c(Nc4c(Cl)ccc5c4OCO5)ncnc3c2)CC1 [Saracatinib] + O=C(c1cc(Cc2n[nH]c(=O)c3ccccc23)ccc1F)N1CCN(C(=O)C2CC2)CC1 [Olaparib] (partner 8 µM),relative viability,NCI-H647; first compound 0.02 µM,0.574
same,relative viability,NCI-H647; first compound 0.2 µM,0.539
same,relative viability,NCI-H647; first compound 0.6325 µM,0.406
same,relative viability,NCI-H647; first compound 2 µM,0.364
same,relative viability,NCI-H460; first compound 0.02 µM,0.416
same,relative viability,NCI-H460; first compound 0.2 µM,0.285
same,relative viability,NCI-H460; first compound 0.6325 µM,0.423
same,relative viability,NCI-H460; first compound 2 µM,0.409
same,relative viability,HCC-78; first compound 0.02 µM,0.891
same,relative viability,HCC-78; first compound 0.6325 µM,0.99
same,relative viability,HCC-78; first compound 2 µM,0.673
same,relative viability,A-427; first compound 0.02 µM,0.733
same,relative viability,A-427; first compound 0.2 µM,0.689
same,relative viability,A-427; first compound 0.6325 µM,0.715
same,relative viability,A-427; first compound 2 µM,0.71
same,relative viability,NCI-H661; first compound 0.02 µM,0.748
same,relative viability,NCI-H661; first compound 0.2 µM,0.625
same,relative viability,NCI-H661; first compound 0.6325 µM,0.671
same,relative viability,NCI-H661; first compound 2 µM,0.59
same,relative viability,HCC-15; first compound 0.02 µM,0.717
same,relative viability,HCC-15; first compound 0.2 µM,0.634
same,relative viability,HCC-15; first compound 0.6325 µM,0.79
same,relative viability,HCC-15; first compound 2 µM,0.752
same,relative viability,HOP-62; first compound 0.02 µM,0.38
same,relative viability,HOP-62; first compound 0.2 µM,0.417
same,relative viability,HOP-62; first compound 0.6325 µM,0.204
same,relative viability,HOP-62; first compound 2 µM,0.39
same,relative viability,PC-14; first compound 0.02 µM,0.263
same,relative viability,PC-14; first compound 0.2 µM,0.261
same,relative viability,PC-14; first compound 0.6325 µM,0.201
same,relative viability,PC-14; first compound 2 µM,0.117
same,relative viability,EMC-BAC-2; first compound 0.02 µM,0.489
same,relative viability,EMC-BAC-2; first compound 0.2 µM,0.418
same,relative viability,EMC-BAC-2; first compound 0.6325 µM,0.562
same,relative viability,EMC-BAC-2; first compound 2 µM,0.474
same,relative viability,NCI-H2405; first compound 0.02 µM,0.873
same,relative viability,NCI-H2405; first compound 0.2 µM,0.84
same,relative viability,NCI-H2405; first compound 0.6325 µM,0.673
same,relative viability,NCI-H2405; first compound 2 µM,0.595
same,relative viability,COR-L23; first compound 0.02 µM,0.447
same,relative viability,COR-L23; first compound 0.2 µM,0.319
same,relative viability,COR-L23; first compound 0.6325 µM,0.346
same,relative viability,COR-L23; first compound 2 µM,0.312
same,relative viability,NCI-H522; first compound 0.02 µM,0.679
same,relative viability,NCI-H522; first compound 0.2 µM,0.59
same,relative viability,NCI-H522; first compound 0.6325 µM,0.572
same,relative viability,NCI-H522; first compound 2 µM,0.534
same,relative viability,EKVX; first compound 0.02 µM,0.704
same,relative viability,EKVX; first compound 0.6325 µM,0.91
same,relative viability,EKVX; first compound 2 µM,0.38
same,relative viability,201T; first compound 0.02 µM,0.913
same,relative viability,201T; first compound 0.2 µM,0.595
same,relative viability,201T; first compound 0.6325 µM,0.775
same,relative viability,201T; first compound 2 µM,0.665
same,relative viability,SK-MES-1; first compound 0.02 µM,0.703
same,relative viability,SK-MES-1; first compound 0.2 µM,0.69
same,relative viability,SK-MES-1; first compound 0.6325 µM,0.49
same,relative viability,SK-MES-1; first compound 2 µM,0.299
same,relative viability,NCI-H1915; first compound 0.02 µM,0.256
same,relative viability,NCI-H1915; first compound 0.2 µM,0.244
same,relative viability,NCI-H1915; first compound 0.6325 µM,0.281
same,relative viability,NCI-H1915; first compound 2 µM,0.225
same,relative viability,LK-2; first compound 0.02 µM,0.802
same,relative viability,LK-2; first compound 0.2 µM,0.505
same,relative viability,LK-2; first compound 0.6325 µM,0.437
same,relative viability,LK-2; first compound 2 µM,0.388
same,relative viability,BEN; first compound 0.02 µM,1.15
same,relative viability,BEN; first compound 0.2 µM,0.922
same,relative viability,BEN; first compound 0.6325 µM,1.15
same,relative viability,BEN; first compound 2 µM,0.794
same,relative viability,NCI-H1993; first compound 0.02 µM,1.03
same,relative viability,NCI-H1993; first compound 0.2 µM,1.02
same,relative viability,NCI-H1993; first compound 0.6325 µM,1.01
same,relative viability,NCI-H1993; first compound 2 µM,0.989
same,relative viability,HCC-366; first compound 0.02 µM,0.343
same,relative viability,HCC-366; first compound 0.2 µM,0.0912
same,relative viability,HCC-366; first compound 0.6325 µM,0.264
same,relative viability,HCC-366; first compound 2 µM,0.199
same,relative viability,COR-L 105; first compound 0.02 µM,0.594
same,relative viability,COR-L 105; first compound 0.2 µM,0.617
same,relative viability,COR-L 105; first compound 0.6325 µM,0.698
same,relative viability,COR-L 105; first compound 2 µM,0.698
same,relative viability,NCI-H1734; first compound 0.02 µM,0.592
same,relative viability,NCI-H1734; first compound 0.6325 µM,0.515
same,relative viability,NCI-H1734; first compound 2 µM,0.547
